Molecules are shown by their SMILES.

For this experiment, the system named is fibrinogen receptor. Description: fibrinogen receptor binding test with ^3 H-BIBU 52 on human thrombocytes in plasma. To be noted: in the presence of plasma, non-labelled BIBU 52 as competitor. As for the experimental part: The fibrinogen receptor binding test according to the invention was carried out, for example, using (3S,5S)-5-[(4'-amidino-4-biphenylyl)-oxymethyl]-3-carboxymethyl-pyrrolidin-2-one-[3-^3 H-4-biphenylyl][=^3 H-BIBU 52 ZW] as ligand in the following manner:
A suspension of human thrombocytes in plasma is incubated with ^3 H-BIBU 52 and varying concentrations of the substance to be tested. The free and bound ligand is separated off by centrifuging and quantitatively determined by scintillation counting. The inhibition of the ^3 H-BIBU 52 binding by the test substance is determined from the measurements obtained.
In order, for example, to measure the competition of binding of ^3 H-BIBU 52 by non-labelled BIBU 52, blood is taken from an anticubital vein and anticoagulated with trisodium citrate (final concentration 13 mM). The blood is centrifuged for 10 minutes at 170 ×g and the supernatant platelet-rich plasma (PRP) is removed. The remaining blood is sharply centrifuged once more in order to obtain plasma. The PRP is diluted with autologous plasma 1:10. […] 100 μl thereof are measured in order to determine the free ligand. The pellet is dissolved in 500 μl of 0.2N NaOH, 450 μl are mixed with 25 μl of 5N HCl and measured. The residual plasma remaining in the pellet is determined from the ^14 C-content and the bound ligand is determined from the ^3 H-measurement. […]

Consider `N=C(N)c1ccc(-c2ccc(OC[C@@H]3C[C@@H](CC(=O)O)C(=O)N3)cc2)cc1` [BIBU 52, (3S,5S)-5-[(4'-amidino-4-biphenylyl)-oxymethyl]-3-carboxymethyl-pyrrolidin-2-one], for which the “binding of tritiated BIBU 52 to human thrombocytes (FIG. 1)” value is reported as “supression of binding”.

The values above are taken from patent US5677466A, “Labelled fibrinogen receptor antagonists, the use thereof and processes for preparing them” (Dr. Karl Thomae, GmbH, priority 1992, dated 1997).
